This assay addresses T1, cathepsin K (Homo sapiens, UniProt P43235).
T1 sequence (P43235 115-329): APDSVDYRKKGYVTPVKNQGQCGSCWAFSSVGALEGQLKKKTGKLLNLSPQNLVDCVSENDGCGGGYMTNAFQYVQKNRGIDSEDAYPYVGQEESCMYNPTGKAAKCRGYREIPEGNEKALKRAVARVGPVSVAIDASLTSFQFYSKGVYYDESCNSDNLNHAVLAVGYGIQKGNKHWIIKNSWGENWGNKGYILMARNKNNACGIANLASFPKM
The assay is described as follows: Cathepsin K inhibition studies (progress curve method, fluorogenic peptide substrate). It counts as biochemical. To be noted: human recombinant enzyme; substrate typically Cbz-Phe-Arg-AMC; 100 mM Na acetate pH 5.5, 20 mM cysteine, 5 mM EDTA, 10% DMSO. The protocol:
Determination of Cathepsin K Proteolytic Catalytic Activity
All assays for cathepsin K were carried out with human recombinant enzyme. Standard assay conditions for the determination of kinetic constants used a fluorogenic peptide substrate, typically Cbz-Phe-Arg-AMC, and were determined in 100 mM Na acetate at pH 5.5 containing 20 mM cysteine and 5 mM EDTA. Stock substrate solutions were prepared at concentrations of 10 or 20 mM in DMSO with 20 uM final substrate concentration in the assays. All assays contained 10% DMSO. […] All assays were conducted at ambient temperature. Product fluorescence (excitation at 360 nm; emission at 460 nm) was monitored with a Perceptive Biosystems Cytofluor II fluorescent plate reader. […]
Potential inhibitors were evaluated using the progress curve method. […] For those compounds whose progress curves were linear, apparent inhibition constants (Ki,app) were calculated according to equation 1 (Brandt et al., Biochemitsry, 1989, 28, 140): […]
[AMC]=vsst+(v0−vss)[1−exp(−kobst)]/kobs (2) where [AMC] is the concentration of product formed over time t, v0 is the initial reaction velocity and vss is the final steady state rate. Values for kobs were then analyzed as a linear function of inhibitor concentration to generate an apparent second order rate constant (kobs/inhibitor concentration or kobs/[I]) describing the time-dependent inhibition. […]

From patent US6369077B1, “Protease inhibitors” (SmithKline Beecham Corporation, priority 1997, dated 2002) come the findings set out here.

Usually Ki stands for a dissociation constant, usually derived from enzyme kinetics or from competition with a known ligand. Turning to `CC(C)C[C@H](NS(=O)(=O)c1cccc2cccnc12)C(=O)NC1COCC1=O` (stereo partly drawn) [4-(R,S)-Amino-N-[(8-quinolinesulfonyl)-S-leucine]-3-tetrahydrofuran-3-one], the Ki was over 10 µM.
